Structures can show the parent of a compound that is named as a salt. Where two headings read alike, the source gives them in different places.
Tests used:
hCA VB = hCA VB (Homo sapiens, UniProt Q9Y2D0); assay: CA inhibition, stopped-flow CO2 hydration assay
Protocol: (§1) An applied photophysics stopped-flow instrument was used for assaying the CA-catalyzed CO2 hydration activity.[37]
(§2) The uncatalyzed rates were determined in the same manner and subtracted from the total observed rates. Stock solutions of the inhibitor (0.1 mM) were prepared in distilled–deionized water, and dilutions up to 0.01 nM were done thereafter with the assay buffer. Inhibitor and enzyme solutions were preincubated together for 15 min at room temperature prior to the assay to allow for the formation of the E–I complex. The inhibition constants were obtained by nonlinear least-squares methods using PRISM 3 and the Cheng–Prusoff equation, as reported earlier, and represent the mean from at least three different determinations. All CA isoforms were recombinant proteins obtained in-house, as reported earlier.[44]−[46]

hCA IX = hCA IX (Homo sapiens, UniProt Q16790); assay: CA inhibition, stopped-flow CO2 hydration assay
Protocol: as §1, §2

hCA II = hCA II (Homo sapiens, UniProt P00918); assay: CA inhibition, stopped-flow CO2 hydration assay
Protocol: as §1, §2

hCA VA = hCA VA (Homo sapiens, UniProt P35218); assay: CA inhibition, stopped-flow CO2 hydration assay
Protocol: as §1, §2

hCA I = hCA I (Homo sapiens, UniProt P00915); assay: CA inhibition, stopped-flow CO2 hydration assay
Protocol: as §1, §2

hCA IV = hCA IV (Homo sapiens, UniProt P22748); assay: CA inhibition, stopped-flow CO2 hydration assay
Protocol: as §1, §2

[1] = molecular target: T1, purified recombinant human DPP IV (Homo sapiens, UniProt P27487); assay: In vitro DPP IV activity assay (fluorogenic Gly-Pro-AMC substrate); format: biochemical
T1 construct: purchased Cayman Chemicals (Michigan)
Protocol: The DPP IV inhibition activities of the entire sets of compounds were carried out on purified recombinant human DPP IV using conditions previously optimized.[35]
Four independent in vitro experiments were carried out, and each of those was performed in triplicate in a white half-volume 96-well solid plate. […] Afterward, the samples were mixed and 50 μL was transferred to each plate well. Each reaction was started by adding 50 μL of the substrate solution (200 μM H-Gly-Pro-7-amido-4-methylcoumarin (AMC)) to each well and incubated at 37 °C for 30 min. […] The DPP IV enzyme and the substrate solution were provided by Cayman Chemicals (Michigan).

human cloned α1a-AR = molecular target: T2, human cloned α1a-AR (Homo sapiens, UniProt P35348); assay: α1a-AR binding assay ([3H]prazosin displacement); settings: human cloned α1a-AR expressed in HEK293 cells
T2 construct: expressed in transfected cells
T2 sequence (P35348 1-466): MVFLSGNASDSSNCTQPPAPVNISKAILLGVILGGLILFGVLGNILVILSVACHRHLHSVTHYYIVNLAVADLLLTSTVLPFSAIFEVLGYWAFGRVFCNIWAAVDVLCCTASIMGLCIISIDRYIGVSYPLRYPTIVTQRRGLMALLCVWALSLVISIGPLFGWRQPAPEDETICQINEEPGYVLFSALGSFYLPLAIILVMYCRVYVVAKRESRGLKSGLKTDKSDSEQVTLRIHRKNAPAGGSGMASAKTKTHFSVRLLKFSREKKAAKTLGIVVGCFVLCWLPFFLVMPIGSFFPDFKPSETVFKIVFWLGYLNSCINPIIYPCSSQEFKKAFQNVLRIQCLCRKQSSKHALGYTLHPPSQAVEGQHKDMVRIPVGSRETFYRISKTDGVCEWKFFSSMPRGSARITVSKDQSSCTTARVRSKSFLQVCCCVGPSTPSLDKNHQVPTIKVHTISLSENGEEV
From the text: Since WB-4101 is a potent α1 antagonist, this adrenoreceptor subtype was chosen to assess the loss of adrenergic affinity.
Figure S3. […] Curves […]
from single experiments were fitted using the standard four parameter logistic equation and represent the mean ± S.E.M. of 4 observations, 2 experi-ments. X-axis: Log concentrations of competitive test compounds. Y-axis: normalized [3H]prazosin Bound/Total bound.
In the table are reported the affinity constants, expressed as pKi (-log Ki), of compounds 11, 12 and WB-4101 for human cloned α1a-AR expressed in HEK293 cells. The values represent the arithmetic mean ± S.E.M. of 4 observations, 2 experiments.
ND, not determinable; NA, not available.
Note: data generated from binding assays were analyzed using Prism 5.02 (GraphPad Software Inc., San Diego, CA) and were fitted to a parametric function to derive best estimates of the IC50 and slope factor (nH); IC50 values were then converted to binding constant Ki according to Cheng-Prus- […]
The details on the α1a-AR binding assay have been described before2.
(1 picture or pasted object on this page, not shown here)

[2] = read-out: Ki CA VB, stopped-flow technique, mean from three assays
[3] = read-out: Ki CA IX, stopped-flow technique, mean from three assays
[4] = read-out: Ki CA II, stopped-flow technique, mean from three assays
[5] = read-out: Ki CA VA, stopped-flow technique, mean from three assays
[6] = read-out: Ki CA I, stopped-flow technique, mean from three assays
[7] = read-out: Ki CA IV, stopped-flow technique, mean from three assays
[8] = mean from three different assays

Chain of hCA I (P00915 whole entry): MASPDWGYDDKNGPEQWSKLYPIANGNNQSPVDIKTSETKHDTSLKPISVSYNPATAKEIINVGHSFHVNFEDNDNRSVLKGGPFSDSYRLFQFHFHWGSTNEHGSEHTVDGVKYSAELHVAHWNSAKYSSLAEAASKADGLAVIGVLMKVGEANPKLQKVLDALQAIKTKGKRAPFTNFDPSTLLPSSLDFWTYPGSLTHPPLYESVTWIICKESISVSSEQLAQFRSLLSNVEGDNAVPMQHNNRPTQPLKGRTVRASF
Chain of hCA IV (P22748 19-312): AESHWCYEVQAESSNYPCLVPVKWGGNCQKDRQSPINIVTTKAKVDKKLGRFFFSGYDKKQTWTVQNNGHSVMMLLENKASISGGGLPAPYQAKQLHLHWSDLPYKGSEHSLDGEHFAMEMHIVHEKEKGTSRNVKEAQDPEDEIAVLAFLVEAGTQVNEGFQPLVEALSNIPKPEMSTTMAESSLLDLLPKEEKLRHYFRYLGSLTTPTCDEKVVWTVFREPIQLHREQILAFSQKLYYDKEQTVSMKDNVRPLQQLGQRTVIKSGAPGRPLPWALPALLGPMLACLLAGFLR
Chain of hCA VB (Q9Y2D0 34-317): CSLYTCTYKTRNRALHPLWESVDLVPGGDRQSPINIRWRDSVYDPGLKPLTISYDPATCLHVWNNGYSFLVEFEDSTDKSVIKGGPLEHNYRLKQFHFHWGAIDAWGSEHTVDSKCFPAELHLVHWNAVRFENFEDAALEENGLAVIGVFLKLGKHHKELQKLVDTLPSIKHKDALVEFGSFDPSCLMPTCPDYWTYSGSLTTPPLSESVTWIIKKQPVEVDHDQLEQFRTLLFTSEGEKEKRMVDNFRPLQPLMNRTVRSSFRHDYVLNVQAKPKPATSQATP
T1 sequence (P27487 whole entry): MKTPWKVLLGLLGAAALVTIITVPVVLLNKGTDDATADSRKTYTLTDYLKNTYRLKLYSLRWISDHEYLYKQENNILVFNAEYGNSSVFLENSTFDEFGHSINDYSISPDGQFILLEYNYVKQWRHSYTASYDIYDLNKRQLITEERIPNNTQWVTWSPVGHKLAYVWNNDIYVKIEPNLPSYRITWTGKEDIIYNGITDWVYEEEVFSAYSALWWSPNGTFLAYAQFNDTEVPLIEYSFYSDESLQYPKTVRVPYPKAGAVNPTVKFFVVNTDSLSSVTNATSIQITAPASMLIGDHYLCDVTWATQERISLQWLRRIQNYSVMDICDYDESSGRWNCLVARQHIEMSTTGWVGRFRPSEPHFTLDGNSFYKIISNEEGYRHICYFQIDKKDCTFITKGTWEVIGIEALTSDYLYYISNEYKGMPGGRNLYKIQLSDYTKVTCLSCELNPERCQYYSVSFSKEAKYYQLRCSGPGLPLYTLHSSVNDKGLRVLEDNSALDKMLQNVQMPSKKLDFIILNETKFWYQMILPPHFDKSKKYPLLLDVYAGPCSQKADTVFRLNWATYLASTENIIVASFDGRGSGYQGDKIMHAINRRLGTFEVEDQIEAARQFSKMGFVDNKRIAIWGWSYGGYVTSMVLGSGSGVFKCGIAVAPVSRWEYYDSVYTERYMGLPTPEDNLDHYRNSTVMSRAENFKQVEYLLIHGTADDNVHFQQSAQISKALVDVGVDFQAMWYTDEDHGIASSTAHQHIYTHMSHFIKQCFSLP
Chain of hCA VA (P35218 39-305): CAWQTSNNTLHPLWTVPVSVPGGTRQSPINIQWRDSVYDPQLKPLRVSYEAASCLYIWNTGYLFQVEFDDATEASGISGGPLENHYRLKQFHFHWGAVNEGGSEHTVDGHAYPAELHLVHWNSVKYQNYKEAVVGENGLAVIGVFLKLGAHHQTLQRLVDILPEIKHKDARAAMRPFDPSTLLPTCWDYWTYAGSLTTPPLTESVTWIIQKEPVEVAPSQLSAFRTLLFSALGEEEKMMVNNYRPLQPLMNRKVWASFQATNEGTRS

Row | Structure (SMILES) | Ki (hCA VB; [2]) | Ki (hCA IX; [3]) | Ki (hCA II; [4]) | Ki (hCA VA; [5]) | Ki (hCA I; [6]) | Ki (hCA IV; [7]) | further results
1 | CC(C)NS(=O)(=O)c1ccc(OCCNCC2COc3ccccc3O2)cc1 (stereo not shown) [Compound 5, [((2-(4-Isopropylsulfonamidephenoxy)ethyl)amino)-methyl]-1,4-benzodioxane Hydrochloride] |  |  |  |  |  |  | Ki (hCA VB): > 10 µM; Ki (hCA IX): > 10 µM; Ki (hCA II): > 10 µM; Ki (hCA VA): > 10 µM; Ki (hCA I): > 10 µM; Ki (hCA IV): > 10 µM
2 | CS(=O)(=O)Nc1ccc(OCCNCC2COc3ccccc3O2)cc1 (stereo not shown) [Compound 6, [((2-(4-Methylsulfonylamidephenoxy)ethyl)amino)-methyl]-1,4-benzodioxane Hydrochloride] | > 10 µM | > 10 µM | > 10 µM | > 10 µM | > 10 µM | > 10 µM | 
3 | COc1cccc(OC)c1OCCNCC1COc2ccccc2O1 (stereo not shown) [WB-4101, 2-[(2,6-dimethoxyphenoxyethyl)aminomethyl]-1,4-benzodioxane, reference compound] | > 10 µM | > 10 µM | > 10 µM | > 10 µM | > 10 µM | > 10 µM | IC50 [1]: > 700 µM
4 | CCS(=O)(=O)Nc1ccc(OCCNCC2COc3ccccc3O2)cc1 (stereo not shown) [Compound 7, [((2-(4-Ethylsulfonylamidephenoxy)ethyl)amino)-methyl]-1,4-benzodioxane Hydrochloride] | > 10 µM | > 10 µM | > 10 µM | > 10 µM | > 10 µM | > 10 µM | 
5 | CNS(=O)(=O)c1ccc(OCCNCC2COc3ccccc3O2)cc1 (stereo not shown) [Compound 2, [((2-(4-Methylsulfonamidephenoxy)ethyl)amino)-methyl]-1,4-benzodioxane Hydrochloride] | > 10 µM | > 10 µM | > 10 µM | > 10 µM | > 10 µM | > 10 µM | 
6 | NS(=O)(=O)c1ccc(OCCNCC2COc3ccccc3O2)cc1 (stereo not shown) [Compound 1, [((2-(4-Sulfonamidephenoxy)ethyl)amino)-methyl]-1,4-benzodioxane Hydrochloride] |  | 0.0203 µM |  |  |  |  | 
7 | CC(C)CS(=O)(=O)Nc1ccc(OCCNCC2COc3ccccc3O2)cc1 (stereo not shown) [Compound 8, [((2-(4-Isobutylsulfanilaminophenoxy)ethyl)amino)-methyl]-1,4-benzodioxane Hydrochloride] | > 10 µM | > 10 µM | > 10 µM | > 10 µM | > 10 µM | > 10 µM | 
8 | CCNS(=O)(=O)c1ccc(OCCNCC2COc3ccccc3O2)cc1 (stereo not shown) [Compound 3, [((2-(4-Ethylsulfonamidephenoxy)ethyl)amino)-methyl]-1,4-benzodioxane Hydrochloride] | > 10 µM | > 10 µM | > 10 µM | > 10 µM | > 10 µM | > 10 µM | 
9 | CN(C)S(=O)(=O)c1ccc(OCCNCC2COc3ccccc3O2)cc1 (stereo not shown) [Compound 4, [((2-(4-Dimethylsulfonamidephenoxy)ethyl)amino)-methyl]-1,4-benzodioxane Hydrochloride] | > 10 µM | > 10 µM | > 10 µM | > 10 µM | > 10 µM | > 10 µM | 
10 | [N-]=[N+]=NC(CCOc1ccc(S(N)(=O)=O)cc1)C1COc2ccccc2O1 (stereo not shown) [Compound 9, 4-(3-Azido-3-(1,4-benzodioxan)propoxy)benzenesulfonamide] |  | 0.328 µM |  |  |  |  | IC50 [1, 8]: 669 ± 23.5 µM

Now from value to molecule, other results behind:

Row | Ki (hCA VB; [2]) | Ki (hCA IX; [3]) | Ki (hCA II; [4]) | Ki (hCA VA; [5]) | Ki (hCA I; [6]) | Ki (hCA IV; [7]) | Structure (SMILES) | further results
11 |  | 0.0311 µM |  |  |  |  | COc1cc(S(N)(=O)=O)ccc1OCCC(N)C1COc2ccccc2O1 (stereo not shown) [Compound 13, 3-Methoxy-4-(3-amino-3-(1,4-benzodioxan)propoxy)benzenesulfonamide] | IC50 [1, 8]: 57.4 ± 3.2 µM
12 | > 10 µM | > 10 µM | > 10 µM | > 10 µM | > 10 µM | > 10 µM | N[C@@H](CC(=O)N1CCn2c(nnc2C(F)(F)F)C1)Cc1cc(F)c(F)cc1F [Sitagliptin, reference compound] | 
13 |  | 0.111 µM |  |  |  |  | COc1cc(S(N)(=O)=O)ccc1OCCC(N=[N+]=[N-])C1COc2ccccc2O1 (stereo not shown) [Compound 10, 3-Methoxy-4-(3-azido-3-(1,4-benzodioxan)propoxy)benzenesulfonamide] | 
14 |  | 0.955 µM |  |  |  |  | COc1cc(S(N)(=O)=O)cc(OC)c1OCCC(N)C1COc2ccccc2O1 (stereo not shown) [Compound 14, 3,5-Dimethoxy-4-(3-amino-3-(1,4-benzodioxan)propoxy)benzenesulfonamide] | IC50 [1, 8]: 0.0283 ± 0.0035 µM
15 |  | 0.745 µM |  |  |  |  | COc1cc(S(N)(=O)=O)cc(OC)c1OCCC(N=[N+]=[N-])C1COc2ccccc2O1 (stereo not shown) [Compound 11, 3,5-Dimethoxy-4-(3-azido-3-(1,4-benzodioxan)propoxy)benzenesulfonamide] | IC50 [1, 8]: 0.0332 ± 0.0058 µM; binding affinity toward α1a-AR (in words) (human cloned α1a-AR): absence of the binding affinity; pKi α1a-AR (human cloned α1a-AR; mean ± S.E.M.): >4
